Source: US8106055B2, “Substituted amide compounds” (Gruenenthal GmbH, priority 2007, dated 2012)

Columns and labels:
[1] = molecular target: T1, human μ opiate receptor (Homo sapiens, UniProt P35372); experiment: Affinity for the human μ opiate receptor ([3H]-naloxone displacement, CHO-K1 receptor membrane preparation, SPA); assay type: binding; conditions: test concentration of 1 μM; for inhibition at 1 µM: read-out: μ (binding on the μ opioid receptor, % inhibition)
T1 construct: purchased PerkinElmer Life Sciences, Zaventem, Belgium RB-HOM; host or cells: CHO-K1 cells (membrane preparation)
T1 sequence (P35372 whole entry): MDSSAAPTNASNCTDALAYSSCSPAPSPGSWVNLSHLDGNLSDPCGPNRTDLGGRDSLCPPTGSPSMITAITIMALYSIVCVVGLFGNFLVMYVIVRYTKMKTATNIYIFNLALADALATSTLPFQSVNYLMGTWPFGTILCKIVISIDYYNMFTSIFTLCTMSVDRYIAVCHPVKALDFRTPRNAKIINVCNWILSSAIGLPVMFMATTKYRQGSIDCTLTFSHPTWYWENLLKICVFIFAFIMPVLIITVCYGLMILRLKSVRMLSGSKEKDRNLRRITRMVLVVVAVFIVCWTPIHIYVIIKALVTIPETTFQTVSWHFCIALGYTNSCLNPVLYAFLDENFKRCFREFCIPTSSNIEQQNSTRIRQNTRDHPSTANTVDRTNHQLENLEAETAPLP
Summary of the method: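 At 1 μmol/l, compounds were scored for % displacement of 1 nmol/l [3H]-naloxone from CHO-K1-expressed human μ opiate receptor in a homogeneous SPA format (90 min, room temperature).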

[2] = molecular target: T2, bradykinin 1 receptor (B1R) of the rat (Rattus norvegicus, UniProt P97583); experiment: Functional investigation on the rat bradykinin 1 receptor (B1R), Ca2+ FLIPR assay in CHO K1 rB1R cells; assay type: cell-based; conditions: test substance 10 μM, Ca2+ FLIPR, CHO K1 rB1R cells; for B1R Ant. r [10 μM] % Inhibition: B1R antagonism rat; for inhibition at 10 µM: CHO-K1, B1R antagonism rat, read-out: B1R Ant. r [10 μM] % Inhibition
T2 construct: expressed in transfected cells; host or cells: CHO K1 cells
T2 sequence (P97583 1-337): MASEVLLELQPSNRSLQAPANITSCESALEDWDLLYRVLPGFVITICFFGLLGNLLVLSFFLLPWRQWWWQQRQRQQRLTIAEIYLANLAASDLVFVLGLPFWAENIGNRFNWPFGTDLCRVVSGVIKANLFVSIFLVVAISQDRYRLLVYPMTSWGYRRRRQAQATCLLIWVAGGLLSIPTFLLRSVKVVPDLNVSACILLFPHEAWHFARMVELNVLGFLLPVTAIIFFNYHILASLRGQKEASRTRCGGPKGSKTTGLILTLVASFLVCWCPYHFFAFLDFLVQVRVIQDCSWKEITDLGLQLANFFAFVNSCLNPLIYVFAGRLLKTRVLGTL
Summary of the method: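 Peak Ca2+-dependent fluorescence in B1R-transfected CHO K1 cells measures antagonism of an EC80 agonist challenge given 10-20 min after compound. Agonist is Lys-Des-Arg9-bradykinin for human, Des-Arg9-bradykinin for rat receptor.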

SMILES	μ (binding on the μ opioid receptor, % inhibition) ([1]; 1 µM) [%]	B1R Ant. r [10 μM] % Inhibition [2] [%]	μ (binding on the μ opioid receptor, % inhibition) [1] [%]	inhibition at 1 µM [1] [%]	inhibition at 10 µM [2] [%]
COc1ccc(S(=O)(=O)N2CCCCC2COCC(=O)NCC2CCC(C(c3ccc(F)cc3)N(C)C)CC2)cc1OC (single isomer, unassigned) [Example 537]	35	8	–	–	–
CN(C)C(CCc1ccccc1)C1CCC(CNC(=O)COC2CCN(S(=O)(=O)c3cccc(C(F)(F)F)c3)C2)CC1 (stereo not shown) [Example 552]	–	26	23	–	–
CN(C)C(CCc1ccccc1)C1CCC(CNC(=O)COCCN(C)S(=O)(=O)c2cccc(C(F)(F)F)c2)CC1 (stereo not shown) [Example 556]	–	20	27	–	–
CN(C)C(CCc1ccccc1)C1CCC(CNC(=O)COCCN(C)S(=O)(=O)c2c(Cl)cccc2Cl)CC1 (stereo not shown) [Example 476]	47	74	–	–	–
COc1ccc(S(=O)(=O)N2CCCCC2COCC(=O)NCC2CCC(C(CCc3ccccc3)N(C)C)CC2)c(OC)c1 (stereo not shown) [Example 420]	53	2	–	–	–
CCN(CCOCC(=O)NCC1CCC(C(c2cccc(F)c2)N(C)C)CC1)S(=O)(=O)c1c(C)cc(OC)c(C)c1C (stereo not shown) [Example 117, N-((4-((dimethylamino)(3-fluorophenyl)methyl)cyclohexyl)methyl)-2-(2-(N-ethyl-4-methoxy-2,3,6-trimethylphenylsulfonamido)ethoxy)acetamide]	–	–	–	92	77
COc1ccc(S(=O)(=O)N(C)CCOCC(=O)NCC2CCC(C(CCc3ccccc3)N(C)C)CC2)cc1 (stereo not shown) [Example 550]	–	50	20	–	–
COc1cc(C)c(S(=O)(=O)N(C)CCOCC(=O)NC2CCC(C(c3cccs3)N(C)C)CC2)c(C)c1 (stereo not shown) [Example 111, N-(4-((dimethylamino)(thiophen-2-yl)methyl)cyclohexyl)-2-(2-(4-methoxy-N,2,6-trimethylphenylsulfonamido)ethoxy)acetamide]	–	–	–	92	104
CN(C)C(c1cccs1)C1CCC(CCNC(=O)COCCN2CCN(S(=O)(=O)c3ccccc3)CC2)CC1 (stereo not shown) [Example 99, N-(2-(4-((dimethylamino)(thiophen-2-yl)methyl)cyclohexyl)ethyl)-2-(2-(4-(phenylsulfonyl)piperazin-1-yl)ethoxy)acetamide]	–	–	–	92	-8
CN(C)C(c1cccc(F)c1)C1CCC(CNC(=O)COCC2CCCN2S(=O)(=O)c2ccc(Cl)c(Cl)c2)CC1 (stereo not shown) [Example 119, 2-((1-(3,4-dichlorophenylsulfonyl)pyrrolidin-2-yl)methoxy)-N-((4-((dimethylamino)(3-fluorophenyl)methyl)cyclohexyl)methyl)acetamide]	–	–	–	90	-6
CN(C)C(c1cccs1)C1CCC(CNC(=O)COCCN(C)S(=O)(=O)c2ccc(Cl)cc2Cl)CC1 (stereo not shown) [Example 8, 2-(2-(2,4-dichloro-N-methylphenylsulfonamido)ethoxy)-N-((4-((dimethylamino)(thiophen-2-yl)methyl)cyclohexyl)methyl)acetamide]	–	–	–	98	62
COc1ccc(S(=O)(=O)N2CCCC2COCC(=O)NCC2CCC(C(CCc3ccccc3)N(C)C)CC2)cc1 (stereo not shown) [Example 572]	–	62	29	–	–
COc1ccc(S(=O)(=O)N2CCCCC2COCC(=O)NCC2CCC(C(c3ccc(F)cc3)N(C)C)CC2)cc1OC (single isomer, unassigned) [Example 534]	24	−4	–	–	–
COc1cc(C)c(S(=O)(=O)N(CCOCC(=O)NCCC2CCC(C(c3ccc(F)cc3)N(C)C)CC2)Cc2ccccc2)c(C)c1 (stereo not shown) [Example 547]	–	30	30	–	–
